Data: patent US8952024B2, “Herbicidal pyrimidone derivatives” (E I du Pont de Nemours and Company, priority 2009, dated 2015)

Legend:
Assay in all cases: Test B pre-/postemergence plant response
Format in all cases: in vivo
[1] = tested on: woolly cupgrass (Eriochloa villosa); settings: Eriochloa villosa, post-emergence, Postemergence, scale 0 to 100 (0 no effect, 100 complete control), read-out: Plant response rating, Cupgrass, Woolly
Procedure, shortened: (§1)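 Greenhouse herbicide screen. Pre- and postemergence (1- to 4-leaf) spray of compound in solvent/surfactant mixture; loam–sand soil for pre, peat/vermiculite medium for post. Visual control rating 0–100 at 13 to 15 days after treatment.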

[2] = tested on: cocklebur (Xanthium strumarium)
Procedure, shortened: as §1

[3] = tested on: giant foxtail (Setaria faberii)
Procedure, shortened: as §1

[4] = tested on: goosegrass (Eleusine indica)
Procedure, shortened: as §1

[5] = tested on: green foxtail (Setaria viridis)
Procedure, shortened: as §1

[6] = tested on: downy bromegrass (Bromus tectorum)
Procedure, shortened: as §1

wild oat (Avena fatua) = tested on: wild oat (Avena fatua)
Procedure, shortened: as §1

[7] = tested on: morningglory (Ipomoea coccinea)
Procedure, shortened: as §1

[8] = tested on: johnsongrass (Sorghum halepense)
Procedure, shortened: as §1

[9] = 62 g ai/ha, postemergence, 0 is no effect, 100 is complete control, 13 to 15 days

For O=C1CCCC(O)=C1C(=O)c1cnc(-c2ccccc2)n(C2CCCCC2)c1=O [Compound 128, 3-cyclohexyl-5-[(2-hydroxy-6-oxo-1-cyclohexen-1-yl)carbonyl]-2-phenyl-4(3H)-pyrimidinone], which pest or weed control at 125 g/ha ([1]; 125 g ai/ha) is on record?
The pest or weed control at 125 g/ha was 90%.

What about the pest or weed control at 250 g/ha ([1]; 250 g ai/ha, 13 to 15 days) of the same compound?
Its pest or weed control at 250 g/ha is 95%.

And the “Cocklebur plant response rating (0 to 100 scale)” value [2, 9]?
Its value is 98.

And the pest or weed control at 31 g/ha ([2]; Xanthium strumarium, post-emergence, Postemergence, 31 g ai/ha, 0 to 100 scale (0 no effect, 100 complete control), read-out: Plant response rating, Cocklebur)?
The pest or weed control at 31 g/ha was 98%.

What about the pest or weed control at 125 g/ha ([2]; Xanthium strumarium, post-emergence, Postemergence, 125 g ai/ha, scale 0 to 100 (0 no effect, 100 complete control), read-out: Plant response rating, Cocklebur) of the same compound?
The pest or weed control at 125 g/ha was 100%.

And the pest or weed control at 250 g/ha ([2]; Xanthium strumarium, post-emergence, Postemergence, 250 g ai/ha, scale 0 to 100 (0 no effect, 100 complete control), 13 to 15 days, read-out: Plant response rating, Cocklebur)?
The pest or weed control at 250 g/ha was 100%.

What about the “Foxtail, Giant plant response rating (0 to 100 scale)” value [3, 9] of the same compound?
The value was 95.

And the pest or weed control at 31 g/ha ([3]; Setaria faberi, post-emergence, Postemergence, 31 g ai/ha, 0 to 100 scale (0 no effect, 100 complete control), read-out: Plant response rating, Foxtail, Giant)?
The pest or weed control at 31 g/ha was 95%.

And the pest or weed control at 125 g/ha ([3]; Setaria faberi, post-emergence, Postemergence, 125 g ai/ha, scale 0 to 100 (0 no effect, 100 complete control), read-out: Plant response rating, Foxtail, Giant)?
The pest or weed control at 125 g/ha was 98%.

And the pest or weed control at 250 g/ha ([3]; Setaria faberi, post-emergence, Postemergence, 250 g ai/ha, scale 0 to 100 (0 no effect, 100 complete control), 13 to 15 days, read-out: Plant response rating, Foxtail, Giant)?
Its pest or weed control at 250 g/ha is 98%.

And the “Goosegrass plant response rating (0 to 100 scale)” value [4, 9]?
Its value is 95.

What about the pest or weed control at 31 g/ha ([4]; Eleusine indica, post-emergence, Postemergence, 31 g ai/ha, 0 to 100 scale (0 no effect, 100 complete control), read-out: Plant response rating, Goosegrass) of the same compound?
Its pest or weed control at 31 g/ha is 90%.

And the pest or weed control at 125 g/ha ([4]; Eleusine indica, post-emergence, Postemergence, 125 g ai/ha, scale 0 to 100 (0 no effect, 100 complete control), read-out: Plant response rating, Goosegrass)?
The pest or weed control at 125 g/ha was 98%.

And the pest or weed control at 250 g/ha ([4]; Eleusine indica, post-emergence, Postemergence, 250 g ai/ha, scale 0 to 100 (0 no effect, 100 complete control), 13 to 15 days, read-out: Plant response rating, Goosegrass)?
The pest or weed control at 250 g/ha was 98%.

What about the “Foxtail, Green plant response rating (0 to 100 scale)” value [5, 9] of the same compound?
Its value is 95.

What about the pest or weed control at 31 g/ha ([5]; Setaria viridis, post-emergence, Postemergence, 31 g ai/ha, 0 to 100 scale (0 no effect, 100 complete control), read-out: Plant response rating, Foxtail, Green) of the same compound?
Its pest or weed control at 31 g/ha is 85%.

What about the pest or weed control at 125 g/ha ([5]; Setaria viridis, post-emergence, Postemergence, 125 g ai/ha, scale 0 to 100 (0 no effect, 100 complete control), read-out: Plant response rating, Foxtail, Green) of the same compound?
Its pest or weed control at 125 g/ha is 95%.

What about the pest or weed control at 250 g/ha ([5]; Setaria viridis, post-emergence, Postemergence, 250 g ai/ha, scale 0 to 100 (0 no effect, 100 complete control), 13 to 15 days, read-out: Plant response rating, Foxtail, Green) of the same compound?
Its pest or weed control at 250 g/ha is 98%.

What about the “Bromegrass, Downy plant response rating (0 to 100 scale)” value [6, 9] of the same compound?
Its value is 35.

What about the pest or weed control at 31 g/ha ([6]; Bromus tectorum, post-emergence, Postemergence, 31 g ai/ha, 0 to 100 scale (0 no effect, 100 complete control), read-out: Plant response rating, Bromegrass, Downy) of the same compound?
The pest or weed control at 31 g/ha was 30%.

And the pest or weed control at 125 g/ha ([6]; Bromus tectorum, post-emergence, Postemergence, 125 g ai/ha, scale 0 to 100 (0 no effect, 100 complete control), read-out: Plant response rating, Bromegrass, Downy)?
Its pest or weed control at 125 g/ha is 40%.

And the pest or weed control at 250 g/ha ([6]; Bromus tectorum, post-emergence, Postemergence, 250 g ai/ha, scale 0 to 100 (0 no effect, 100 complete control), 13 to 15 days, read-out: Plant response rating, Bromegrass, Downy)?
Its pest or weed control at 250 g/ha is 50%.

And the “Oat, Wild plant response rating (0 to 100 scale)” value (wild oat (Avena fatua); [9])?
Its value is 50.

What about the pest or weed control at 31 g/ha (wild oat (Avena fatua); Avena fatua, post-emergence, Postemergence, 31 g ai/ha, 0 to 100 scale (0 no effect, 100 complete control), read-out: Plant response rating, Oat, Wild) of the same compound?
Its pest or weed control at 31 g/ha is 40%.

What about the pest or weed control at 125 g/ha (wild oat (Avena fatua); Avena fatua, post-emergence, Postemergence, 125 g ai/ha, scale 0 to 100 (0 no effect, 100 complete control), read-out: Plant response rating, Oat, Wild) of the same compound?
The pest or weed control at 125 g/ha was 60%.

And the pest or weed control at 250 g/ha (wild oat (Avena fatua); Avena fatua, post-emergence, Postemergence, 250 g ai/ha, scale 0 to 100 (0 no effect, 100 complete control), 13 to 15 days, read-out: Plant response rating, Oat, Wild)?
Its pest or weed control at 250 g/ha is 80%.

And the “Morningglory plant response rating (0 to 100 scale)” value [7, 9]?
Its value is 80.

And the pest or weed control at 31 g/ha ([7]; Ipomoea, post-emergence, Postemergence, 31 g ai/ha, 0 to 100 scale (0 no effect, 100 complete control), read-out: Plant response rating, Morningglory)?
Its pest or weed control at 31 g/ha is 80%.

What about the pest or weed control at 125 g/ha ([7]; Ipomoea, post-emergence, Postemergence, 125 g ai/ha, scale 0 to 100 (0 no effect, 100 complete control), read-out: Plant response rating, Morningglory) of the same compound?
Its pest or weed control at 125 g/ha is 90%.

What about the pest or weed control at 250 g/ha ([7]; Ipomoea, post-emergence, Postemergence, 250 g ai/ha, scale 0 to 100 (0 no effect, 100 complete control), 13 to 15 days, read-out: Plant response rating, Morningglory) of the same compound?
The pest or weed control at 250 g/ha was 90%.

What about the “Johnsongrass plant response rating (0 to 100 scale)” value [8, 9] of the same compound?
The value was 70.

What about the pest or weed control at 31 g/ha ([8]; Sorghum halepense, post-emergence, Postemergence, 31 g ai/ha, 0 to 100 scale (0 no effect, 100 complete control), read-out: Plant response rating, Johnsongrass) of the same compound?
Its pest or weed control at 31 g/ha is 70%.

And the pest or weed control at 125 g/ha ([8]; Sorghum halepense, post-emergence, Postemergence, 125 g ai/ha, scale 0 to 100 (0 no effect, 100 complete control), read-out: Plant response rating, Johnsongrass)?
The pest or weed control at 125 g/ha was 85%.

And the pest or weed control at 250 g/ha ([8]; Sorghum halepense, post-emergence, Postemergence, 250 g ai/ha, scale 0 to 100 (0 no effect, 100 complete control), 13 to 15 days, read-out: Plant response rating, Johnsongrass)?
The pest or weed control at 250 g/ha was 85%.
